Laboratory results from ChEMBL document CHEMBL1201862, “PubChem BioAssay data set” (2004).
Activity calls are given as the source filed them.

Tests used:
[1] = target: Beta-2 adrenergic receptor (Homo sapiens, UniProt P07550); assay: ADRB2 activation measured by internalization – cell-based, FAP fluorogen, flow cytometry, cherry pick 1, dose response (AID 588763); type: functional
[2] = target: Cytochrome P450 2C19 (Homo sapiens, UniProt P33261); assay: Cytochrome panel assay with activity outcomes. Panel member name: p450-cyp2c19 Compounds with AC50 equal or less than 10 uM are considered active; type: functional
Cytochrome P450 2C19, sequence (P33261 whole entry): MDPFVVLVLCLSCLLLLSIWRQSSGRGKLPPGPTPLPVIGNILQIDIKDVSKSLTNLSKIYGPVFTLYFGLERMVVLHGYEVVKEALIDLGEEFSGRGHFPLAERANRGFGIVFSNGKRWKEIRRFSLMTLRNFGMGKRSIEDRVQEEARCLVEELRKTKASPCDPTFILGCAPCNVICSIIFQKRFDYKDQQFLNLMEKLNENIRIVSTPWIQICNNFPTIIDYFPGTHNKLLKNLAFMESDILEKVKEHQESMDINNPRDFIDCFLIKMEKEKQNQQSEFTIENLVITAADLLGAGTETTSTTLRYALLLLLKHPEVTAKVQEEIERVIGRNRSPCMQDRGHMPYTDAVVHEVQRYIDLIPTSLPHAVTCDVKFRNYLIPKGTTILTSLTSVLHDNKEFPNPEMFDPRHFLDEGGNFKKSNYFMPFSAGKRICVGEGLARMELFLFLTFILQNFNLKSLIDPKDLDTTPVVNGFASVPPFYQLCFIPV

[3] = target: Cytochrome P450 2D6 (Homo sapiens, UniProt P10635);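 note: CYP2D6 member of a cytochrome P450 panel assay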
Cytochrome P450 2D6, sequence (P10635 whole entry, the tested form may be a part): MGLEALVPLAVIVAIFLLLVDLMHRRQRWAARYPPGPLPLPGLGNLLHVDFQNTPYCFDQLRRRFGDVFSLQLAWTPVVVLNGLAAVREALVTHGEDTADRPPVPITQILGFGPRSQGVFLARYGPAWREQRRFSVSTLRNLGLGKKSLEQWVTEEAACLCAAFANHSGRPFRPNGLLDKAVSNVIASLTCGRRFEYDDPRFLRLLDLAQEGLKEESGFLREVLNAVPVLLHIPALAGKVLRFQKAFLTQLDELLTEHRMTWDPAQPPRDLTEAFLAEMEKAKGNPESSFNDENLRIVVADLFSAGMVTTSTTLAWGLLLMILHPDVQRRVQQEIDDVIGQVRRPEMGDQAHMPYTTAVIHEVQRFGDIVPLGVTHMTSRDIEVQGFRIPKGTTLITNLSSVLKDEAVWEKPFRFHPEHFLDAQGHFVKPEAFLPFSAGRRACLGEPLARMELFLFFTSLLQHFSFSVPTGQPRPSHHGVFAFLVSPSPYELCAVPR

[4] = target: Photoreceptor-specific nuclear receptor (Homo sapiens, UniProt Q9Y5X4); type: functional, cell-based;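 note: CHO-S cells with Gal4-NCOR and VP16-NR2E3 two-hybrid luciferase reporter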
[5] = target: Dual specificity protein kinase CLK1 (Homo sapiens, UniProt P49759); assay: inhibition of human CLK1 activity – biochemical, cherry-picked samples, selectivity assay for Dyrk1A inhibitor project, dose response (AID 588811)
Dual specificity protein kinase CLK1, sequence (P49759 whole entry): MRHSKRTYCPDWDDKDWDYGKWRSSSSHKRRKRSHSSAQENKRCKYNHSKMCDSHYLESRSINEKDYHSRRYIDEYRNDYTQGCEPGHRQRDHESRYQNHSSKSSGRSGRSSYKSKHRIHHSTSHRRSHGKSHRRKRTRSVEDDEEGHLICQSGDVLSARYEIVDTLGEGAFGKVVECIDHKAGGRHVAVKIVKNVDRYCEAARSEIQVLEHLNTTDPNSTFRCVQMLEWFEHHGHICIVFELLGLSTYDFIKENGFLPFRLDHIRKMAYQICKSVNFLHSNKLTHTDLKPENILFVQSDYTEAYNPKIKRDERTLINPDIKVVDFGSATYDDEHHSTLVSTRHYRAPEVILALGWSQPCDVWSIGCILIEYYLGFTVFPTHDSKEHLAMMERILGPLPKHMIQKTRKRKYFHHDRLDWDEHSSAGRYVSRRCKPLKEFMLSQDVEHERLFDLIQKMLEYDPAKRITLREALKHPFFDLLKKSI

[6] = target: Dual specificity tyrosine-phosphorylation-regulated kinase 1A (Rattus norvegicus, UniProt Q63470); type: biochemical, Homo sapiens
[7] = Luminescence Cell-Based Dose Retest to Confirm Inhibitors of Cancer Stem Cells. [Related pubchem assays (depositor defined):AID2717, AID2721]; type: functional; conditions: Homo sapiens
[8] = test system: INS1; assay: INS-1E survival protection against cytokine death – cell-based, luminescence, retest, dose response (AID 449756); type: functional; conditions: Rattus norvegicus;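 note: cell death triggered by IL-1 beta plus TNF-alpha plus IFN-gamma mixture; protective hits raise ATP signal compared with cytokine alone wells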
[9] = target: Voltage-gated inwardly rectifying potassium channel KCNH2 (Homo sapiens, UniProt Q12809); conditions: Potency;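 note: confirmatory quantitative high-throughput screen measuring inhibition of hERG channel activity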
Voltage-gated inwardly rectifying potassium channel KCNH2, sequence (Q12809 whole entry): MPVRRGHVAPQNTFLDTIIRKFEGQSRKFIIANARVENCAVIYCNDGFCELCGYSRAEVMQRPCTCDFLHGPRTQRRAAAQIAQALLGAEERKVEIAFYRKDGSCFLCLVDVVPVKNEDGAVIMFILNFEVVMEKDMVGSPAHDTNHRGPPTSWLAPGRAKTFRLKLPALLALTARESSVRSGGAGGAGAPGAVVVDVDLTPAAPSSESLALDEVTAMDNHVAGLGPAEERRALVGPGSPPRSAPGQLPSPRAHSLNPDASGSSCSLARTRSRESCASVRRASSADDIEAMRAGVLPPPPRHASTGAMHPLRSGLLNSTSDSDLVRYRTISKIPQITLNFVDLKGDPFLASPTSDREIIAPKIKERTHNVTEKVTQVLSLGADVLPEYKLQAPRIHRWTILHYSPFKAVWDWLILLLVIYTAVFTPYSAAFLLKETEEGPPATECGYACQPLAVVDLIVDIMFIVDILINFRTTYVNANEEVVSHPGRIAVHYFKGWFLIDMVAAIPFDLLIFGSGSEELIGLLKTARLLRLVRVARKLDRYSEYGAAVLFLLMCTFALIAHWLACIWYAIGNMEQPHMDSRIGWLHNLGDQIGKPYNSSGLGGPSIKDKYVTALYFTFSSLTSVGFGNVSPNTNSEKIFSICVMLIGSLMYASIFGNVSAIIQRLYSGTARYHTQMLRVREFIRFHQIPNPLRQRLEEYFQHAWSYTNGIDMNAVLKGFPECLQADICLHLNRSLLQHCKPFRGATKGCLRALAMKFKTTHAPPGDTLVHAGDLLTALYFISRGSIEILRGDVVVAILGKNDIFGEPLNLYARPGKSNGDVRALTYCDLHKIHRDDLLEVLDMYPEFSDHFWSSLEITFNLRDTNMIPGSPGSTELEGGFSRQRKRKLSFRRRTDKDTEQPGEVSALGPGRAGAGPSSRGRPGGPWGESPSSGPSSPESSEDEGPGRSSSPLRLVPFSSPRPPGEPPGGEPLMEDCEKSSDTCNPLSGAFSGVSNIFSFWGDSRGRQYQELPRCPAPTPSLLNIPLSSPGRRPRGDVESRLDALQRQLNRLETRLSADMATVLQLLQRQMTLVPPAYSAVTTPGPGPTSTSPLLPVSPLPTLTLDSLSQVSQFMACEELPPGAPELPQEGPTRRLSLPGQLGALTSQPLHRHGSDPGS

[10] = test system: Vero; assay: cells; type: functional; conditions: Chlorocebus sabaeus
[11] = HEK-293T viability loss after treatment – luminescence, T-cell screen hits, cytotoxicity control for TCR NF-kB inhibitor project, dose response (AID 489026); type: functional, cell-based;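 note: cells exposed to compound about 14 hours before the viability readout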
[12] = target: T1, Cytochrome P450 1A2 (Homo sapiens, UniProt P05177);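 note: PubChem cytochrome P450 panel assay, CYP1A2 panel member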
T1 sequence (P05177 whole entry): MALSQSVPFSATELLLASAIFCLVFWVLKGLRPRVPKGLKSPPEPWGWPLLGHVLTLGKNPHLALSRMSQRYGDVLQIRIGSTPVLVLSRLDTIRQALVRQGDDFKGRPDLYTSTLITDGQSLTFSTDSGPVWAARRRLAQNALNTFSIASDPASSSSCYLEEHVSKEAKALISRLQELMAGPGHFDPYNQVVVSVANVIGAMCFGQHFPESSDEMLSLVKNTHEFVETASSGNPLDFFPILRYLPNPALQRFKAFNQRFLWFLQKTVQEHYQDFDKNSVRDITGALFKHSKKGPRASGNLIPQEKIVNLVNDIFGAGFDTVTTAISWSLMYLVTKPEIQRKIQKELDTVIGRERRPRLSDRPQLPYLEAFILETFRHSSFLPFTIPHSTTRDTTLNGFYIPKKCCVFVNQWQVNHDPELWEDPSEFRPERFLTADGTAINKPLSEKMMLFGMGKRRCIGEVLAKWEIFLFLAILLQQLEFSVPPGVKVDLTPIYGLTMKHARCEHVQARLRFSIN

[13] = target: T2, Heat shock factor protein 1 (Mus musculus, UniProt P38532); assay: enhancement of HSF1-driven luciferase signal – cell-based, NIH3T3, luminescence, dose retest, confirmation (AID 435004); type: functional;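 note: stress induced by proteasome inhibitor MG132 added 30 min after compound; luciferase reporter driven by HSF1 response element in NIH3T3 cells; actives raise luminescence as potentiators of the MG132 stress response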
T2 sequence (P38532 whole entry): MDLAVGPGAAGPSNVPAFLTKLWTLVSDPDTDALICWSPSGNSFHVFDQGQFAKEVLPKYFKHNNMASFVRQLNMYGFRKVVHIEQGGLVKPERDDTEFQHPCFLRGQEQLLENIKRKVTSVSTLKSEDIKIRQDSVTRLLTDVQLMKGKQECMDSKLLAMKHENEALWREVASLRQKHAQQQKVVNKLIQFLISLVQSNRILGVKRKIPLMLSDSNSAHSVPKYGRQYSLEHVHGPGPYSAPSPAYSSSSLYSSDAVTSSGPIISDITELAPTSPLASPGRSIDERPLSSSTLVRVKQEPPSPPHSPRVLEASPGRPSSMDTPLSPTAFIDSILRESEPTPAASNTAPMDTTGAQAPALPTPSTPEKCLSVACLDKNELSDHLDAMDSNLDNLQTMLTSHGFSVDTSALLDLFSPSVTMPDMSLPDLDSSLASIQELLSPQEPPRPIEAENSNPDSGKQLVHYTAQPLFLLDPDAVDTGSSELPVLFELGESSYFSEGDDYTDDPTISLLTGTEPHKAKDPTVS

[14] = target: Cytochrome P450 3A4 (Homo sapiens, UniProt P08684);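 note: CYP3A4 tested as one member of a cytochrome P450 panel screen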
Cytochrome P450 3A4, sequence (P08684 whole entry): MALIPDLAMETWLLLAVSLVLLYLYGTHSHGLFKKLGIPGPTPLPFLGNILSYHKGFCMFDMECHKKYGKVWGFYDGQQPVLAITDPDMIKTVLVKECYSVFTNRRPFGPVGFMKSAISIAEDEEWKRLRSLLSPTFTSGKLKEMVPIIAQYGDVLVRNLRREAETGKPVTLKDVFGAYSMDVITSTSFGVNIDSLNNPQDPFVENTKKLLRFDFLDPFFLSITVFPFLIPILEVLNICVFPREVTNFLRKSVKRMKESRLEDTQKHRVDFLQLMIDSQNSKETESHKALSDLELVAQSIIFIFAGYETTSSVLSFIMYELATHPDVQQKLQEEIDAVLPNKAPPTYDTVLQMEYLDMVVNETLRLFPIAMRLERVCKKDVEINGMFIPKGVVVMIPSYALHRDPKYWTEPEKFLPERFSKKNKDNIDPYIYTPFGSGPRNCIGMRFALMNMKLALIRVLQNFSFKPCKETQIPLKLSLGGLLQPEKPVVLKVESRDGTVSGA

[15] = viability loss in THP-1 monocytes – THP-1 cells, cytotoxicity control for Vif-APOBEC3G degradation inhibitor project, dose response (AID 1117359); type: functional; conditions: THP-1
[16] = target: T3, SUMO-activating enzyme (Homo sapiens, UniProt Q9UBT2); assay: blockers of SAE1/SAE2–UBC9 SUMO transfer – biochemical, HTRF, uHTS, primary screen (AID 2006); type: protein-complex assay
T3 sequence (Q9UBE0 whole entry): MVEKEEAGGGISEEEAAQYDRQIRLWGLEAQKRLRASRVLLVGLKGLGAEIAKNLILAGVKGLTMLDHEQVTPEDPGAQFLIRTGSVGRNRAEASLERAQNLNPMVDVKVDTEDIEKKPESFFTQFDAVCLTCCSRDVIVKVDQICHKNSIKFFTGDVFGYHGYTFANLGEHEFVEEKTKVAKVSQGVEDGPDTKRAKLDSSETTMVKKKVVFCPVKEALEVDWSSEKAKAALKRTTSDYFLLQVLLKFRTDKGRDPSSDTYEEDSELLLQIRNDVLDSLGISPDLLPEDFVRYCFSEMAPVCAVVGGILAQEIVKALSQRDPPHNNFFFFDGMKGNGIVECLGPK
T3 sequence (Q9UBT2 whole entry): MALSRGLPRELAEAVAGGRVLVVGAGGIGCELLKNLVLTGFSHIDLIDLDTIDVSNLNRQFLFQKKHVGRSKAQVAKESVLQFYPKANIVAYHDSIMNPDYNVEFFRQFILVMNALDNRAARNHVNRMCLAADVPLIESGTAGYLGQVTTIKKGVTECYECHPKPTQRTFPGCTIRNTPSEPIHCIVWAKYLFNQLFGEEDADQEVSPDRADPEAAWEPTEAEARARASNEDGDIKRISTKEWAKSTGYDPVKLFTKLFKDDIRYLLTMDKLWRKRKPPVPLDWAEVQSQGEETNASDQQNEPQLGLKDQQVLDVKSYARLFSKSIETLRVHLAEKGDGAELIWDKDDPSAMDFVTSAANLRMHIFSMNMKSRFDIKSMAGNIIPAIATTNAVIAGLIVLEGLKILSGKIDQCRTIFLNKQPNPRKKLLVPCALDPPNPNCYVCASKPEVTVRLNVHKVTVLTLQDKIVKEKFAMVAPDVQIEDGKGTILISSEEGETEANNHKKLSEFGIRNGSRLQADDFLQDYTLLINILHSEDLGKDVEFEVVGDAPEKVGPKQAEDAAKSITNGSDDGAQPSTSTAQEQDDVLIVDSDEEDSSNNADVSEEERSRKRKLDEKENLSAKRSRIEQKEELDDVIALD

[17] = target: Induced myeloid leukemia cell differentiation protein Mcl-1 (Homo sapiens, UniProt Q07820); type: functional
Induced myeloid leukemia cell differentiation protein Mcl-1, sequence (Q07820 whole entry): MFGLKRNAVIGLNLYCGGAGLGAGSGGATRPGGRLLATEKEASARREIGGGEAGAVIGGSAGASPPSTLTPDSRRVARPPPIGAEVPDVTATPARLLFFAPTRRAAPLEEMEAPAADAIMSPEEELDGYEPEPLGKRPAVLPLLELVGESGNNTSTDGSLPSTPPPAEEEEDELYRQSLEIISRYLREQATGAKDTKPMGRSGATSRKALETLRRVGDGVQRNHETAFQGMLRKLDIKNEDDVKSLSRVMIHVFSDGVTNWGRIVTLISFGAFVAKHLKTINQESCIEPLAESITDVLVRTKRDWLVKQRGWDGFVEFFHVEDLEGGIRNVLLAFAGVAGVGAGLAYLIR

[18] = target: T3, SUMO-activating enzyme; assay: blockers of UBC9-mediated SUMO conjugation – biochemical, AlphaScreen, SUMOylation inhibitor project, confirmation (AID 2018); type: functional
[19] = target: T4, Protein RecA (Mycobacterium tuberculosis, UniProt P9WHJ3); assay: Fluorescence Cell-Free Homogeneous Dose Retest to Identify Inhibitors of RecA-Intein Splicing Activity. [Related pubchem assays (depositor defined):AID2097, AID2223, AID489010, AID492950]; type: functional
T4 sequence (P9WHJ3 whole entry): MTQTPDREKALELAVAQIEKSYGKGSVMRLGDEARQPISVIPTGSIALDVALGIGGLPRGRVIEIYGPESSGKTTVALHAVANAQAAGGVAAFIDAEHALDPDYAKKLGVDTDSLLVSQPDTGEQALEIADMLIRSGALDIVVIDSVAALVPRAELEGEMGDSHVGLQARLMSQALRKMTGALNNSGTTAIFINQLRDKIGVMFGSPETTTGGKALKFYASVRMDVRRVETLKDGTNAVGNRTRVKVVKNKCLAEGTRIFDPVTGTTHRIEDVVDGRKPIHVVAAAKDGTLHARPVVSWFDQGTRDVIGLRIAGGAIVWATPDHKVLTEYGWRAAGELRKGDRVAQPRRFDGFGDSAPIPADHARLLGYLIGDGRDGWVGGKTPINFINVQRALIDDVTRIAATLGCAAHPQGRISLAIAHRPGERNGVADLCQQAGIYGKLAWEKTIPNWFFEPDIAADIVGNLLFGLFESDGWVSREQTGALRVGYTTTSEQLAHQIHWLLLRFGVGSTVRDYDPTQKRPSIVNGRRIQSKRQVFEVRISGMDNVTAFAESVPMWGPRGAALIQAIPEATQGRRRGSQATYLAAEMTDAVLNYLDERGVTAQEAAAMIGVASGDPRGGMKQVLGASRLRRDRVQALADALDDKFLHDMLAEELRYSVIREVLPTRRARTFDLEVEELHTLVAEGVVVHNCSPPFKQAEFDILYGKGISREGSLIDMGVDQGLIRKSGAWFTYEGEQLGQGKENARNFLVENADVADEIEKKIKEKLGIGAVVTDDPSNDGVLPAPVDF

[20] = target: T5, Replicative DNA helicase DnaB (Mycobacterium tuberculosis, UniProt P9WMR3); assay: DnaB intein splicing inhibitors, dose response, biochemical, cell-free fluorescence (AID 449749); type: functional
T5 sequence (P9WMR3 whole entry): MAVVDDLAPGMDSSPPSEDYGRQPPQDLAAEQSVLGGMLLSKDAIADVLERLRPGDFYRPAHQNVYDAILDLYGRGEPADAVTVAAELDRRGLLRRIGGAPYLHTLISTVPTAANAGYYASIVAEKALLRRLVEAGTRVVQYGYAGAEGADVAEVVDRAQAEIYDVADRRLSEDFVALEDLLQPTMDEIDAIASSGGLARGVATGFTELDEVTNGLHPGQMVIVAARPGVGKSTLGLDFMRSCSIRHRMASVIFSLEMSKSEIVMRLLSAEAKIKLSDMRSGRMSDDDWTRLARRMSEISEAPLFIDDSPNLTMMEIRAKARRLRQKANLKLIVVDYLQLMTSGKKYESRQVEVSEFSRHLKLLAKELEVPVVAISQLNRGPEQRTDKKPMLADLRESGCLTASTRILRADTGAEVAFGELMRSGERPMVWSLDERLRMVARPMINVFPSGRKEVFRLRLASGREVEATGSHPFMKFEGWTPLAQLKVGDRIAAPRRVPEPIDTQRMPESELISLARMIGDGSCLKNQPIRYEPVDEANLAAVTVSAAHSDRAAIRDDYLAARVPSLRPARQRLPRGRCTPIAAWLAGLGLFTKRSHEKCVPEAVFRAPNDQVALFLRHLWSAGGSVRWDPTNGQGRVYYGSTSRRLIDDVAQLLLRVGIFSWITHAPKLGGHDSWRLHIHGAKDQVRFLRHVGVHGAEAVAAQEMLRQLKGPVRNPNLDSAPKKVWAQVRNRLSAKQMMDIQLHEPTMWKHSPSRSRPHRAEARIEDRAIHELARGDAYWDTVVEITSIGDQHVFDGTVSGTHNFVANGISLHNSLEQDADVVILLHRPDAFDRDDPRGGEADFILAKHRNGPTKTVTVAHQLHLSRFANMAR

[21] = target: Glucose-6-phosphate 1-dehydrogenase (Homo sapiens, UniProt P11413); assay: inhibition of Homo sapiens G6PD, dose series – biochemical, fluorescence, selectivity assay for P. falciparum G6PD inhibitor project, dose response (AID 504792); type: functional
[22] = target: DNA dC->dU-editing enzyme APOBEC-3G (Homo sapiens, UniProt Q9HC16); assay: Dose Response confirmation of small molecule APOBEC3G DNA Deaminase Inhibitors via a fluorescence-based single-stranded DNA deaminase assay. [Related pubchem assays (depositor defined):AID493012, AID493028]; type: functional
[23] = A cytotoxicity screen of small molecule inhibitors of the PhoP region in Salmonella typhi identified in the primary screen. [Related pubchem assays: 1850, 1864, 1985 ]; type: functional

Beta-2 adrenergic receptor, sequence (P07550 whole entry): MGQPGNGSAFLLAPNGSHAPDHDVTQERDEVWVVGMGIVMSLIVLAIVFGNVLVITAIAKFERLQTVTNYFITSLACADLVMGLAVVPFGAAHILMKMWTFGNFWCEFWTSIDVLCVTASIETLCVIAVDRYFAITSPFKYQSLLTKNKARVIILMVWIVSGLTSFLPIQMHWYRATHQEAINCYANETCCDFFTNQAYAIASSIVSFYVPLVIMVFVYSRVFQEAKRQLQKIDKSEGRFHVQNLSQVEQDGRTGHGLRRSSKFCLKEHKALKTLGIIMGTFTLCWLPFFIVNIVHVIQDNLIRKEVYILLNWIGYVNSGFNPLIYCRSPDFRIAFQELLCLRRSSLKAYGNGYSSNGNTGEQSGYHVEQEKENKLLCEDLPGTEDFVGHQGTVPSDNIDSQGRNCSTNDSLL

## NC(=O)CC(NC(=O)Cc1ccc(Br)cc1)c1ccc(N2CCN(c3ccccn3)CC2)c([N+](=O)[O-])c1 (centres undefined)
[1]
  EC50: 12.2 µM (inactive)

## Cc1ccc(C(=O)N/N=C/c2ccc(S(=O)(=O)[O-])o2)c(Cl)c1.[Na+]
[2]
  AC50: inconclusive
[3]
  AC50: inconclusive

## CSc1ccc(C(=O)C2CCCN(Cc3cccn3-c3cccnc3)C2)cc1 (centres undefined)
[1]
  EC50: 0.566 µM (active)

## O=C(CSc1nnnn1-c1ccc(O)cc1)Nc1ccc(N2CCOCC2)c(Cl)c1
[4]
  IC50: 0.488 µM (active)
[5]
  AC50: 8.48 µM (active)
[6]
  AC50: 8.12 µM (active)

## CC(C)(C)c1cc(C=C(C#N)C#N)cc(C(C)(C)C)c1O [TYRPHOSTIN A9]
[2]; read-out: AC50
  AC50: 7.94 µM (inconclusive)
[7]
  AC50: 1.3 µM (active)
[8]
  AC50: 0.928 µM (active)
[9]
  AC50: 15.8 µM (inconclusive)
[10]
  CC50: 1.37 µM (active)
[11]
  IC50: > 80 µM (inactive)

## c1ccc(SCCSc2ccccc2)cc1
[9]
  AC50: 28.2 µM (inconclusive)

## c1nc(NCC2CCCC2)c2cc(-c3ccc4c(c3)OCO4)ccc2n1
[5]
  AC50: 0.00361 µM (active)

## Clc1ccc(CNc2nccc(-c3ccc4c(c3)OCO4)n2)cc1Cl
[5]
  AC50: < 0.00195 µM (active)

## COc1cc(-c2nnc(SC/C=C/c3ccccc3)n2N)cc(OC)c1OC
[12]
  AC50: 14.1 µM (inconclusive)
[3]
  AC50: inconclusive
[13]
  EC50: > 260 µM (inconclusive)
[14]
  AC50: 31.6 µM (inconclusive)

## CCc1ccc(S(=O)(=O)/N=C2\C=CC(=O)c3ccccc32)cc1
[15]
  CC50: 23.7 µM (active)
[16]
  IC50: 35.4 µM (active)
[17]
  IC50: 3.11 µM (active)
[18]
  IC50: 4.93 µM (active)
[19]
  EC50: 0.643 µM (active)
[20]
  AC50: 1.15 µM (active)

## CC(=O)Nc1ccc(S(=O)(=O)NNc2cccc(C)c2)cc1
[21]
  IC50: > 80 µM (inactive)
[22]
  IC50: 35.9 µM (active)
[23]
  EC50: > 50 µM (active)
